According to patent US20180057507A1, “INHIBITORS OF DUAL LEUCINE ZIPPER (DLK) KINASE FOR THE TREATMENT OF DISEASE” (Board of Regents, The University of Texas System, priority 2016, published 2018):

Assays:
[1] = target: T1, human DLK (Homo sapiens, UniProt Q12852); assay: DLK Kd Determinations (KINOMEscan KdELECT, DiscoveRx); set-up: full length of human DLK (amino acids 1-859); host or cells: transiently transfected HEK293 cells; unpurified extract; settings: fusion protein of full length human DLK (amino acids 1-859) and NFkB DNA binding domain; qPCR readout; duplicate
T1 sequence (Q12852 1-859): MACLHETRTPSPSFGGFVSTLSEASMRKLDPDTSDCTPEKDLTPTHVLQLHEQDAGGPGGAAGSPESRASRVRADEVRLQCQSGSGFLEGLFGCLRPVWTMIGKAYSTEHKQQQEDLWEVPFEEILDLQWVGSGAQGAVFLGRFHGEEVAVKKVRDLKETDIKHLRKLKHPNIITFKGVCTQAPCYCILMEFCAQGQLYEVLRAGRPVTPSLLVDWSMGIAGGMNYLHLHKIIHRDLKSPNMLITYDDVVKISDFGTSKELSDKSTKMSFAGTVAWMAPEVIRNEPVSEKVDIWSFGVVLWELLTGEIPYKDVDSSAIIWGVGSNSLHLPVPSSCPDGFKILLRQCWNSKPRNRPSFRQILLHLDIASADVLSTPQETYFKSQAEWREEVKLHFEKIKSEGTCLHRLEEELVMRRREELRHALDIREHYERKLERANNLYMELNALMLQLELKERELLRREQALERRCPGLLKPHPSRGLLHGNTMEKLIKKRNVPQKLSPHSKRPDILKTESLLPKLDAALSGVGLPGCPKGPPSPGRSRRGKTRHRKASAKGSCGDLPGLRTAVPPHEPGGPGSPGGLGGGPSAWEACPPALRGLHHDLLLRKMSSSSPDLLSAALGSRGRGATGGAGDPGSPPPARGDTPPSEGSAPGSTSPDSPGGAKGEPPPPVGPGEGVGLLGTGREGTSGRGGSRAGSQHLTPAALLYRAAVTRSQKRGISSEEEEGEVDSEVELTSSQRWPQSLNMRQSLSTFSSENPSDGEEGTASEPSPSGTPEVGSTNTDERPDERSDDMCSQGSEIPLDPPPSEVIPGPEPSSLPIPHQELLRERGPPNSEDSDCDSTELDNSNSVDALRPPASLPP
Procedure, shortened: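 Kd values were fitted by Hill equation (slope −1) from duplicate 11-point 3-fold dilutions starting at 30,000 nM. Bead-immobilized ligand competed with compound for DNA-tagged full-length human DLK fusion in HEK293 extract (final DMSO 0.9%, 1 h, room temperature), with qPCR readout of bound kinase.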

[2] = target: T1, human DLK; assay: Phospho-cJun Cellular Assay; type: cell-based; set-up: expressed in transfected cells; settings: HEK293 cells stably transfected with Dox-inducible human DLK; p-cJun (Ser63); 5 h compound incubation
Procedure, shortened: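 HEK293 cells with doxycycline-induced human DLK (induced 20 h; uninduced cells as negative control) treated with compound for 5 h at 37 °C. Phospho-cJun (Ser63) measured in lysates with detection-antibody kit; IC50 from variable-slope dose-response fit.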

| SMILES | Kd [1] | IC50 [2] |
| --- | --- | --- |
| CC(C)c1nc(-c2cnc(N)c(C(F)(F)F)c2)cn1[C@H]1[C@@H]2CC(N3CCOCC3)C[C@@H]21 (single isomer, unassigned) [Example 127b] | 61 nM | 633 nM |
| CC(C)Cc1nc(-c2cnc(N)c(OC(F)(F)F)c2)cn1[C@H]1[C@@H]2CC(N3CCN(CCF)CC3)C[C@@H]21 (single isomer, unassigned) [Example 159b, 5-(1-(3-(4-(2-fluoroethyl)piperazin-1-yl)bicyclo[3.1.0]hexan-6-yl)-2-isobutyl-1H-imidazol-4-yl)-3-(trifluoromethoxy)pyridin-2-amine] | 49 nM | 1550 nM |
| Nc1ncc(-c2cn([C@H]3[C@@H]4CC(N5CCN(CCF)CC5)C[C@@H]43)c(CC3CC3)n2)cc1C(F)(F)F (single isomer, unassigned) [Example 162b, 5-(2-(cyclopropylmethyl)-1-(3-(4-(2-fluoroethyl)piperazin-1-yl)bicyclo[3.1.0]hexan-6-yl)-1H-imidazol-4-yl)-3-(trifluoromethyl)pyridin-2-amine] | 5.6 nM | 769 nM |
| CCCc1nc(-c2cnc(N)c(C(F)(F)F)c2)cn1[C@H]1[C@@H]2CN(CCF)C[C@@H]21 [Example 84, 5-(1-((1R,5S,6s)-3-(2-fluoroethyl)-3-azabicyclo[3.1.0]hexan-6-yl)-2-propyl-1H-imidazol-4-yl)-3-(trifluoromethyl)pyridin-2-amine] | 160 nM | 1610 nM |
| CC(C)c1nc(-c2cnc(N)c(C(F)(F)F)c2)cn1[C@H]1[C@@H]2CC(N3CCCOCC3)C[C@@H]21 (stereo partly shown) [Example 130, 5-(1-(3-(1,4-oxazepan-4-yl)bicyclo[3.1.0]hexan-6-yl)-2-isopropyl-1H-imidazol-4-yl)-3-(trifluoromethyl)pyridin-2-amine] | 25 nM | 1760 nM |
| CC(=O)N1C[C@@H]2[C@H](C1)[C@H]2n1cc(-c2cnc(N)c(C(F)(F)F)c2)nc1C1CC1 [Example 72, 1-((1R,5S,6s)-6-(4-(6-amino-5-(trifluoromethyl)pyridin-3-yl)-2-cyclopropyl-1H-imidazol-1-yl)-3-azabicyclo[3.1.0]hexan-3-yl)ethan-1-one] | 69 nM | 2690 nM |
| Nc1ncc(-c2cn([C@H]3[C@@H]4CN(C5CCOCC5)C[C@@H]43)c(C3CC3)n2)cc1OC(F)F [Example 105, 5-(2-cyclopropyl-1-((1R,5S,6s)-3-(tetrahydro-2H-pyran-4-yl)-3-azabicyclo[3.1.0]hexan-6-yl)-1H-imidazol-4-yl)-3-(difluoromethoxy)pyridin-2-amine] | 79 nM | 1900 nM |
| CN1CCN(C2CC3C(C2)C3n2cc(-c3cnc(N)c(OC(F)F)c3)nc2C2CC2)CC1 (stereo not shown) [Example 137, 5-(2-cyclopropyl-1-(3-(4-methylpiperazin-1-yl)bicyclo[3.1.0]hexan-6-yl)-1H-imidazol-4-yl)-3-(difluoromethoxy)pyridin-2-amine] | 22 nM | 710 nM |
| CC(C)c1nc(-c2cnc(N)c(OC(F)(F)F)c2)cn1[C@H]1[C@@H]2CN(C3COC3)C[C@@H]21 [Example 80, 5-(2-isopropyl-1-((1R,5S,6s)-3-(oxetan-3-yl)-3-azabicyclo[3.1.0]hexan-6-yl)-1H-imidazol-4-yl)-3-(trifluoromethoxy)pyridin-2-amine] | 42 nM | 1670 nM |
| CC(C)c1nc(-c2cnc(N)c(C(F)(F)F)c2)cn1[C@H]1C[C@@H](N2CCCOCC2)C1 [Example 45, 5-(1-((1s,3s)-3-(1,4-oxazepan-4-yl)cyclobutyl)-2-isopropyl-1H-imidazol-4-yl)-3-(trifluoromethyl)pyridin-2-amine] | 340 nM | 6190 nM |
| CC(C)c1nc(-c2cnc(N)c(OC(F)(F)F)c2)cn1[C@H]1[C@@H]2CC(N3CCOC[C@@H]3C)C[C@@H]21 (single isomer, unassigned) [Example 157a] | 57 nM | 895 nM |
| CC(C)Cc1nc(-c2cnc(N)c(C(F)(F)F)c2)cn1[C@H]1[C@@H]2CC(N3CCN(CCF)CC3)C[C@@H]21 (single isomer, unassigned) [Example 160b, 5-(1-(3-(4-(2-fluoroethyl)piperazin-1-yl)bicyclo[3.1.0]hexan-6-yl)-2-isobutyl-1H-imidazol-4-yl)-3-(trifluoromethyl)pyridin-2-amine] | 8.7 nM | 775 nM |
| Nc1ncc(-c2cn([C@H]3[C@@H]4CC(N5CCOCC5)C[C@@H]43)c(CC3CC3)n2)cc1C(F)(F)F (single isomer, unassigned) [Example 138a, 5-(2-(cyclopropylmethyl)-1-(3-morpholinobicyclo[3.1.0]hexan-6-yl)-1H-imidazol-4-yl)-3-(trifluoromethyl)pyridin-2-amine] | 23 nM | 1010 nM |
| CC(C)c1nc(-c2cnc(N)c(C(F)(F)F)c2)cn1C1CC1 [Example 6, 5-[1-cyclopropyl-2-(propan-2-yl)-1H-imidazol-4-yl]-3-(trifluoromethyl)pyridin-2-amine] | 130 nM | 3620 nM |
| CC(C)c1nc(-c2cnc(N)c(OC(F)(F)F)c2)cn1[C@H]1[C@@H]2CC(N3CCOCC3)C[C@@H]21 (single isomer, unassigned) [Example 19a] | 76 nM | 666 nM |
| Nc1ncc(-c2cn([C@H]3[C@@H]4CN(CCF)C[C@@H]43)c(C3CC3)n2)cc1C(F)(F)F [Example 95, 5-(2-cyclopropyl-1-((1R,5S,6s)-3-(2-fluoroethyl)-3-azabicyclo[3.1.0]hexan-6-yl)-1H-imidazol-4-yl)-3-(trifluoromethyl)pyridin-2-amine] | 12.3 nM | 1200 nM |
| Nc1ncc(-c2cn([C@H]3[C@@H]4CC(N5CCOCC5)C[C@@H]43)c(C3CC3)n2)cc1C(F)(F)F (single isomer, unassigned) [Example 128b, 5-(2-cyclopropyl-1-(3-morpholinobicyclo[3.1.0]hexan-6-yl)-1H-imidazol-4-yl)-3-(trifluoromethyl)pyridin-2-amine] | 22 nM | 755 nM |
| Nc1ncc(-c2cn([C@H]3[C@@H]4CC(N5CCN(CCF)CC5)C[C@@H]43)c(CC3CC3)n2)cc1OC(F)(F)F (single isomer, unassigned) [Example 152a, 5-(2-(cyclopropylmethyl)-1-(3-(4-(2-fluoroethyl)piperazin-1-yl)bicyclo[3.1.0]hexan-6-yl)-1H-imidazol-4-yl)-3-(trifluoromethoxy)pyridin-2-amine] | 37 nM | 1350 nM |
| CC1COCCN1C1C[C@@H]2[C@H](C1)[C@H]2n1cc(-c2cnc(N)c(OC(F)(F)F)c2)nc1C1CC1 (stereo partly shown) [Example 148, 5-(2-cyclopropyl-1-(3-(3-methylmorpholino)bicyclo[3.1.0]hexan-6-yl)-1H-imidazol-4-yl)-3-(trifluoromethoxy)pyridin-2-amine] | 22 nM | 710 nM |
| CC(C)c1nc(-c2cnc(N)c(OC(F)(F)F)c2)cn1[C@H]1[C@@H]2CC(N3CCN(CCF)CC3)C[C@@H]21 (single isomer, unassigned) [Example 156a, 5-(1-(3-(4-(2-fluoroethyl)piperazin-1-yl)bicyclo[3.1.0]hexan-6-yl)-2-isopropyl-1H-imidazol-4-yl)-3-(trifluoromethoxy)pyridin-2-amine] | 30 nM | 747 nM |
| CC(C)c1nc(-c2cnc(N)c(OC(F)(F)F)c2)cn1[C@H]1[C@@H]2CC(N3CCOCC3)C[C@@H]21 (single isomer, unassigned) [Example 19b] | 38 nM | 493 nM |
| CC(C)Cc1nc(-c2cnc(N)c(C(F)(F)F)c2)cn1[C@H]1[C@@H]2CC(N3CCN(C)CC3)C[C@@H]21 (single isomer, unassigned) [Example 146b, 5-(2-isobutyl-1-(3-(4-methylpiperazin-1-yl)bicyclo[3.1.0]hexan-6-yl)-1H-imidazol-4-yl)-3-(trifluoromethyl)pyridin-2-amine] | 4.5 nM | 346 nM |
| Nc1ncc(-c2cn([C@H]3[C@@H]4CC(N5CCCOCC5)C[C@@H]43)c(C3CC3)n2)cc1OC(F)(F)F (stereo partly shown) [Example 136, 5-(1-(3-(1,4-oxazepan-4-yl)bicyclo[3.1.0]hexan-6-yl)-2-cyclopropyl-1H-imidazol-4-yl)-3-(trifluoromethoxy)pyridin-2-amine] | 20 nM | 662 nM |
